In US12252491B2, “IL-17A inhibitors” (Eli Lilly and Company, priority 2019, dated 2025):

Assays:
[1] = target: binding of IL-17A to IL-17RA (Homo sapiens (Human), UniProt Q16552); assay: IL-17A:IL-17RA AlphaLISA
Description: The ability of compounds to inhibit the binding of IL-17A to IL-17RA may be assessed with an AlphaLISA assay.
To assay the compounds of the present invention, 0.1 μL of a test compound stock is serially diluted in 100% DMSO using an Echo Acoustic Liquid Handler (LabCyte Sunnydale, Calif.) in 384 well proxiplates (Perkin Elmer). A 5 μL addition of IL-17RA-FLAG is added to the plate, followed by the addition of 5 μL Avi-tagged IL-17A-His to provide a final concentration of 2 nM of IL-17RA and IL-17A, respectively. The assay is carried out in 20 mM HEPES, 150 mM NaCl, 0.05% Tween-20, 0.1% Human Serum Albumin, pH 7 and 1% DMSO. The assay mixture is allowed to incubate at room temperature for 2 hours. After the 2 hour incubation, 10 μL of streptavidin donor beads (20 μg/ml final) and anti-FLAG acceptor beads (20 μg/ml final) are added to the plate. The plate is allowed to incubate for one hour at room temp, then is read on the Envision (Perkin Elmer). The relative IC50 values are determined using a four parameter fit as shown in equation 1. In this equation, bottom and top are defined as the plateaus of the curve, and H is the Hill Slope.

human IL-17A = human IL-17A (Homo sapiens (Human), UniProt Q16552)
Description: The ability of compounds to neutralize the activity of IL-17A may be assessed with a cell-based human IL-17A neutralization assay conducted essentially as follows. […] After 48 hours, CXCL1/GROα in the culture media is measured using a commercial ELISA kit (#DY275; R&D Systems). Medium alone treatments are included in every experiment to assess the basal levels of CXCL1/GROα. Percent inhibition is calculated using the following equation:

[2] = Mouse oral bioavailability; assay type: in vivo; details: whole blood (dried blood spot), male mice, IV bolus 1 mg/kg vs oral 3 mg/kg, 8-hour AUC, read-out: % F (mouse)
Description: Oral bioavailability (% F) for compounds of the invention may be determined in mice by determination of an 8-hour blood plasma AUC (nM*hr) following intravenous and oral administration performed essentially as follows. Male mice (n=3) are administered compound via intravenous (IV) bolus (1 mg/kg) or orally (3 mg/kg). For intravenous administration, a vehicle of 20% w/v capsitol in NaPO4 buffer (25 mM) adjusted to pH 2 in a volume of 5 mL/kg is used. For oral administration, a vehicle of HEC/P80/AF/PW (probe sonicated to afford a homogeneous suspension) in a volume of 10 mL/kg is used. Blood is sampled by saphenous bleeding using K2 EDTA as anticoagulant. Approximately 20 μL of blood (or enough for 1 spot) is collected via a capillary tube and transferred to a card as a dry blood spot. Cards are allowed to dry for at least 2 hours before shipping for analysis. Blood concentration of compounds for each mouse is measured by liquid chromatography/tandem mass spectrometry at time points of 0.08 (IV only), 0.25, 0.5, 0.75, 2, 4, and 8 hours. Oral bioavailability (% F) is determined via the following equation: [% F=(AUC/Dose)PO/(AUC/Dose)IV].

Sequence of human IL-17A (Q16552 20-155): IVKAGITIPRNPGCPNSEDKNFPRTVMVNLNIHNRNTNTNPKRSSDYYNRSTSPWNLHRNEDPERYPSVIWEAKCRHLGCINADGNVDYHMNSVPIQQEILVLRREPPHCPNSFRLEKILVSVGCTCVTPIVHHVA
Sequence of binding of IL-17A to IL-17RA (Q16552 other isoform, or with tags, fused parts or gaps): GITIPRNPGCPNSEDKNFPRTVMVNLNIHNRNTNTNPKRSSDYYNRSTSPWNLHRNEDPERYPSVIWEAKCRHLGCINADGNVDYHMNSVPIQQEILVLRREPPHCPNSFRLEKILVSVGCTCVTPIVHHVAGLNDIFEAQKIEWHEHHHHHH

SMILES | IC50 [1] | IC50 (human IL-17A) | bioavailability [2]
Cc1nonc1C(=O)N[C@H](c1cn2ncc(CN3C[C@@H](C(F)(F)F)NC3=O)cc2n1)C1CCC(F)(F)CC1 [Example 6, N—[(S)-(4,4-Difluorocyclohexyl)-[7-[[(4S)-2-oxo-4-(trifluoromethyl)imidazolidin-1-yl]methyl]imidazo[1,2-b]pyridazin-2-yl]methyl]-4-methyl-1,2,5-oxadiazole-3-carboxamide] | < 9.45 nM | 94.2 nM | 75%
O=C(N[C@H](c1cn2ncc(CN3C[C@@H](C(F)(F)F)NC3=O)cc2n1)C1CCC(F)(F)CC1)c1conc1CF [Example 7, N—[(S)-(4,4-Difluorocyclohexyl)-[7-[[(4S)-2-oxo-4-(trifluoromethyl)imidazolidin-1-yl]methyl]imidazo[1,2-b]pyridazin-2-yl]methyl]-3-(fluoromethyl)isoxazole-4-carboxamide] | 37.8 nM | 128 nM | 47%
COC[C@H](c1cnn2cc([C@@H](NC(=O)c3nonc3C)C3CCC(F)(F)CC3)nc2c1)N1C[C@@H](C(F)(F)F)NC1=O [Example 24, N—[(S)-(4,4-Difluorocyclohexyl)-[7-[(1S)-2-methoxy-1-[(4S)-2-oxo-4-(trifluoromethyl)imidazolidin-1-yl]ethyl]imidazo[1,2-b]pyridazin-2-yl]methyl]-4-methyl-1,2,5-oxadiazole-3-carboxamide] | < 9.45 nM | 9.3 ± 6 nM | 107%
CCc1nocc1C(=O)N[C@H](c1cn2ncc(CN3C[C@@H](C(F)(F)F)NC3=O)cc2n1)C1CCC(F)(F)CC1 [Example 2, N—[(S)-(4,4-Difluorocyclohexyl)-[7-[[(4S)-2-oxo-4-(trifluoromethyl)imidazolidin-1-yl]methyl]imidazo[1,2-b]pyridazin-2-yl]methyl]-3-ethyl-isoxazole-4-carboxamide] | 15.2 ± 2.5 nM | 53.3 ± 26.4 nM | 28%

Other lines, results leading:

IC50 [1] | IC50 (human IL-17A) | bioavailability [2] | SMILES
27.7 ± 2.4 nM | 127 nM | 35% | Cc1nocc1C(=O)N[C@H](c1cn2ncc(CN3C[C@@H](C(F)(F)F)NC3=O)cc2n1)C1CCC(F)(F)CC1 [Example 3, N—[(S)-(4,4-Difluorocyclohexyl)-[7-[[(4S)-2-oxo-4-(trifluoromethyl)imidazolidin-1-yl]methyl]imidazo[1,2-b]pyridazin-2-yl]methyl]-3-methyl-isoxazole-4-carboxamide]
13 ± 2 nM | 93.7 nM | 59% | O=C(N[C@H](c1cn2ncc(CN3C[C@@H](C(F)(F)F)NC3=O)cc2n1)C1CCC(F)(F)CC1)c1conc1C(F)F [Example 4, N—[(S)-(4,4-Difluorocyclohexyl)-[7-[[(4S)-2-oxo-4-(trifluoromethyl)imidazolidin-1-yl]methyl]imidazo[1,2-b]pyridazin-2-yl]methyl]-3-(difluoromethyl)isoxazole-4-carboxamide]
20 nM | 104 nM | 49% | CC(F)(F)c1nocc1C(=O)N[C@H](c1cn2ncc(CN3C[C@@H](C(F)(F)F)NC3=O)cc2n1)C1CCC(F)(F)CC1 [Example 5, N—[(S)-(4,4-Difluorocyclohexyl)-[7-[[(4S)-2-oxo-4-(trifluoromethyl)imidazolidin-1-yl]methyl]imidazo[1,2-b]pyridazin-2-yl]methyl]-3-(1,1-difluoroethyl)isoxazole-4-carboxamide]
